The values that follow are results of earlier work, collected in patent US7247427B1, “Leptin assay” (Yeda Research and Development Co., Ltd., priority 1999, dated 2007).

This data set relates to cultured adipocytes. Conditions: no Angiopoietin-2 expressed in the absence of leptin.

For the substance “leptin: the product of the obese gene, expressed in adipocytes; regulates food intake and energy metabolism through its receptor OB-R”, the “expression of the angiopoietin-2 gene” value is reported as “specifically induces the expression of the angiopoietin-2 gene”.
